Data published in ChEMBL document CHEMBL4699568, “Crystal structure of Leishmania mexicana cysteine protease B in complex with a high-affinity azadipeptide nitrile inhibitor” (Bioorg Med Chem, 2020).

Experiments:
[1] = Inhibition of Leishmania mexicana CPB delta CTE mutant using Z-Phe-Arg-7-amido-4-methylcoumarin as substrate preincubated for 2 mins followed by substrate addition by fluorimetric assay
Cruzipain = Cruzipain (Trypanosoma cruzi, UniProt P25779); test: Inhibition of recombinant Trypanosoma cruzi cruzain using Z-Phe-Arg-7-amido-4-methylcoumarin as substrate preincubated for 2 mins followed by substrate addition by fluorimetric assay
Cruzipain, sequence (P25779 whole entry): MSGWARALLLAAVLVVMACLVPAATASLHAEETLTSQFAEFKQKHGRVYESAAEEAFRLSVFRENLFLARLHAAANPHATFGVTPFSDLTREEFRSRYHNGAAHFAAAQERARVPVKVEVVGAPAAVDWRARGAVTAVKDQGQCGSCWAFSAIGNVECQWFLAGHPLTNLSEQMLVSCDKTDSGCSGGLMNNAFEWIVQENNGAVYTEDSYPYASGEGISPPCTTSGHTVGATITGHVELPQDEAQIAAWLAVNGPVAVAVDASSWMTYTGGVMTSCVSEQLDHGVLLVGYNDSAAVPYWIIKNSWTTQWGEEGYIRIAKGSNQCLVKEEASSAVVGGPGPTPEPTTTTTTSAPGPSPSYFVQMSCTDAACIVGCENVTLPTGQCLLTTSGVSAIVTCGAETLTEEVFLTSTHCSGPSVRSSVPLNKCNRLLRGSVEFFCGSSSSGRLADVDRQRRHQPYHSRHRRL

Procathepsin L [2] = molecular target: T1, Procathepsin L (Homo sapiens, UniProt P07711); test: Inhibition of human cathepsin L using Z-Phe-Arg-7-amido-4-methylcoumarin as substrate preincubated for 2 mins followed by substrate addition by fluorimetric assay
T1 sequence (P07711 whole entry): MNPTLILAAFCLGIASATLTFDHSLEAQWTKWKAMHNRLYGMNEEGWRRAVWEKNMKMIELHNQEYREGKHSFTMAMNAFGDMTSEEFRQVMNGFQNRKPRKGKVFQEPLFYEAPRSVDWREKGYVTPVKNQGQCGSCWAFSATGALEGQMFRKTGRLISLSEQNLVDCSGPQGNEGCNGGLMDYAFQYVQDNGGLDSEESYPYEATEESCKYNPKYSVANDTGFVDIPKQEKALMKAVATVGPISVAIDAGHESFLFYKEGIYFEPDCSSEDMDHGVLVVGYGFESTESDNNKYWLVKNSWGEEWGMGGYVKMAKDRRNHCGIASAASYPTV

[3] = molecular target: Cruzipain (Trypanosoma cruzi) (UniProt P25779); test: Inhibition of recombinant Trypanosoma cruzi cruzain assessed as on rate constant
Cruzipain (Trypanosoma cruzi), sequence (P25779 123-467 limits assumed): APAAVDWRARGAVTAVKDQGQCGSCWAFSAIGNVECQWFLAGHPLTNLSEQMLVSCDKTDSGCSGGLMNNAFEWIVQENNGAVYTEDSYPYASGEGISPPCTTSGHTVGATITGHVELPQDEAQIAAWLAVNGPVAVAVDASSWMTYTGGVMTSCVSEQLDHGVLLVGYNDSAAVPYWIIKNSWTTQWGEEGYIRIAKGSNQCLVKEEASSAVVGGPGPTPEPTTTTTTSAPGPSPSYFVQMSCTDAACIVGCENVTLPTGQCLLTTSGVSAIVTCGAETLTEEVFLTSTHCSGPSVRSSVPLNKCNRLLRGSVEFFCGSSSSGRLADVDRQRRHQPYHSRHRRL

[4] = molecular target: Cruzipain (Trypanosoma cruzi) (UniProt P25779); test: Inhibition of recombinant Trypanosoma cruzi cruzain assessed as off rate constant
Procathepsin L [5] = molecular target: T1, Procathepsin L; test: Inhibition of human cathepsin L assessed as on rate constant
Leishmania mexicana [6] = test: Inhibition of Leishmania mexicana CPB delta CTE mutant assessed as off rate constant
Leishmania mexicana [7] = test: Inhibition of Leishmania mexicana CPB delta CTE mutant assessed as on rate constant
[8] = molecular target: cathepsin L (Procathepsin L) (Homo sapiens, UniProt P07711); test: Inhibition of human cathepsin L assessed as off rate constant; conditions: human cathepsin L enzyme, read-out: K
cathepsin L (Procathepsin L), sequence (P07711 whole entry): as the sequence (P07711 whole entry) above

Compound | pKi [1] | Ki (Cruzipain) [µM] | Ki (Procathepsin L [2]) [µM] | also measured
CC(C)C[C@H](NC(=O)Cc1ccccc1)C(=O)NC1(C#N)CC1 | 7.2 | 0.0398 | 0.0631 | 
N#CCNC(=O)[C@H](Cc1ccccc1)NC(=O)c1ccccc1 | 6.6 |  | 0.126 | 
N#CCNC(=O)[C@H](Cc1ccccc1)NC(=O)c1c[nH]c(=O)[nH]c1=O | 6.5 | 1.26 | 1 | 
CC(C)C[C@H](NC(=O)OC(C)(C)C)C(=O)NCC#N | 5.8 |  | 2.51 | 
N#CCNC(=O)[C@@H](Cc1ccccc1)NC(=O)c1ccccc1 | 5.9 | 6.31 | 1.58 | 
N#CCNC(=O)[C@H](Cc1ccccc1)NC(=O)OCc1ccccc1 | 6.6 |  | 0.126 | 
N#CCNC(=O)[C@H](Cc1ccccc1)NC(=O)c1ccco1 | 6.3 |  | 0.501 | 
N#CCNC(=O)[C@H](Cc1ccccc1)NC(=O)c1cncc(Br)c1 | 6.9 | 0.158 | 0.01 | 
N#CCNC(=O)[C@H](Cc1c[nH]c2ccccc12)NC(=O)c1ccccc1 | 6.1 |  | 0.0501 | 
CC[C@@H](C)[C@H](NC(=O)c1ccccc1)C(=O)NC1(C#N)CC1 | 5.5 | 25.1 | 3.16 | 
N#CCNC(=O)[C@H](Cc1cccc(Cl)c1)NC(=O)c1ccccc1 | 5.2 |  | 0.02 | 
N#CCNC(=O)[C@H](Cc1ccc(O)cc1)NC(=O)c1ccccc1 | 5.7 |  | 0.0794 | 
CC(C)C[C@H](NC(=O)C(F)(F)c1ccccc1)C(=O)NC1(C#N)CC1 | 6.8 | 0.0631 | 0.0316 | 
Cn1nc(C(C)(C)C)cc1C(=O)N[C@@H](Cc1ccccc1)C(=O)NCC#N | 7.4 |  | 0.00398 | 
CC(C)C[C@H](NC(=O)C1(c2ccccc2)CCC1)C(=O)NC1(C#N)CC1 | 7.6 | 0.02 | 0.00501 | 
Cn1nc(C(C)(C)C)cc1C(=O)N[C@@H](Cc1ccccc1)C(=O)NC1(C#N)CC1 | 7.3 |  | 0.00501 | 
CC(C)C[C@H](NC(=O)c1cc(C(C)(C)C)nn1C)C(=O)NCC#N | 7.6 |  | 0.0251 | 
N#CCNC(=O)[C@H](Cc1ccccc1)NC(=O)c1cnccn1 | 6.2 | 6.31 | 1 | 

Compound | pKi [1] | Ki (Cruzipain) [µM] | Ki (Procathepsin L [2]) [µM] | also measured
CC(C)(C#N)NC(=O)[C@H](Cc1ccccc1)NC(=O)c1ccccc1 | 5.7 |  | 0.631 | 
CC(C)(C)OC(=O)N[C@@H](Cc1ccccc1)C(=O)NCC#N | 5.8 | 2.51 |  | 
CN(C#N)N(C)C(=O)[C@H](Cc1ccccc1)NC(=O)c1cc(C(C)(C)C)nn1C | 9.7 |  | 0.000126 | K [3]: 7.7e+06 M⁻¹ s⁻¹; K [4]: 12 10^-6/s; K (Procathepsin L [5]): 700000 M⁻¹ s⁻¹; K (Leishmania mexicana [6]): 0.2 10^-6/s; K (Leishmania mexicana [7]): 1 10^-6/M/s; koff [8]: 8e-08 s⁻¹
Cn1nc(C(F)(F)F)cc1C(=O)N[C@@H](Cc1ccccc1)C(=O)NCC#N | 7 | 0.501 | 0.0251 | 
CC(C)C[C@H](NC(=O)C1(c2ccccc2)CC1)C(=O)NC1(C#N)CC1 | 7.2 | 0.0251 | 0.00501 | 
CC(C)C[C@H](NC(=O)c1cc(C(C)(C)C)nn1C)C(=O)NC1(C#N)CC1 | 8.3 |  | 0.0126 | 
CC(C)C[C@H](NC(=O)c1ccccc1)C(=O)NC1(C#N)CC1 | 6.8 |  |  | 
CC(C)C[C@H](NC(=O)C(C)(C)c1ccccc1)C(=O)NC1(C#N)CC1 | 6.4 | 0.158 | 0.0398 | 
N#CCNC(=O)[C@H](Cc1ccccc1)NC(=O)c1cccs1 | 6.4 |  | 0.501 | 
N#CC1(NC(=O)[C@H](Cc2ccccc2)NC(=O)c2ccccc2)CC1 | 6.8 |  | 0.0501 | 
N#CCNC(=O)[C@H](Cc1ccccc1)NC(=O)c1cncnc1 | 6.2 | 5.01 | 1 | 
N#CCNC(=O)C1(NC(=O)c2ccccc2)CCCC1 | 4.3 |  | 10 | 
Cn1nc(C(C)(C)C)cc1C(=O)N[C@@H](Cc1cccc(Cl)c1)C(=O)NCC#N | 6.6 |  | 0.00126 | 
N#CC1(NC(=O)C2(NC(=O)c3ccccc3)CCCC2)CC1 | 5.2 | 12.6 | 3.98 | 
CC(C)C[C@H](NC(=O)OC(C)(C)C)C(=O)NC1(C#N)CC1 | 6.3 |  | 0.631 | 
CC(C)C[C@H](NC(=O)c1cc(C(C)(C)C)nn1C)C(=O)N(C)N(C)C#N | 9.7 |  | 0.000501 | K (Leishmania mexicana [6]): 0.04 10^-6/s; K (Leishmania mexicana [7]): 0.22 10^-6/M/s
N#CCNC(=O)[C@H](Cc1ccc(OC(=O)c2ccccc2)cc1)NC(=O)c1ccccc1 | 6.9 |  | 0.251 | 
CC(C)(C)OC(=O)N[C@@H](Cc1cccc(Cl)c1)C(=O)NCC#N | 5.2 |  | 0.251 | 
